Results reported in ChEMBL document CHEMBL5393453, “Compositions and methods of using the same for treatment of neurodegenerative and mitochondrial disease” (2021).

Test: Cytotoxicity against human HeLa cells expressing YFP parkin assessed as highest safety dose by DAPI staining analysis
Format: toxicity, cell-based
Details: read-out: Activity

Row | Structure (SMILES) | MNTC [µM]
1 | Fc1ccc2c(c1)OC[C@H](N1C[C@H]3COC[C@@H]3C1)[C@H]2Nc1ncnc2[nH]c(C(F)(F)F)cc12 (single isomer, unassigned) | 25
2 | Fc1ccc2c(c1)CC[C@@H](N1CCOCC1)[C@@H]2Nc1ncnc2[nH]c(C3CC3)cc12 | 25
3 | C[C@H]1CN([C@@H]2COc3cc(F)ccc3[C@H]2Nc2ncnc3[nH]c(C(F)(F)F)cc23)CCO1 | 25
4 | C[S@@](=N)(=O)C1CN(C2COc3ccccc3C2Nc2ncnc3[nH]c(C(F)(F)F)cc23)C1 (single isomer, unassigned) | 25
5 | c1ccc2c(c1)OC[C@@H](N1CCOCC1)[C@@H]2Nc1ncnc2[nH]c(C3CC3)cc12 (single isomer, unassigned) | 25
6 | FC(F)(F)c1cc2c(N[C@@H]3c4ccccc4OC[C@H]3N3CCOCC3)ncnc2[nH]1 | 25
7 | FC(F)(F)c1cc2c(N[C@@H]3c4ccccc4CC[C@@H]3C3CCOCC3)ncnc2[nH]1 | 25
8 | FC(F)(F)c1cc2c(N[C@H]3c4ccccc4OC[C@H]3N3CCOCC3)ncnc2[nH]1 | 25
9 | Fc1ccc2c(c1)OC[C@H](N1C[C@H]3COC[C@H]3C1)[C@H]2Nc1ncnc2[nH]c(C(F)(F)F)cc12 (single isomer, unassigned) | 25
10 | CO[C@H]1CCN([C@@H]2COc3ccccc3[C@H]2Nc2ncnc3[nH]c(C(F)(F)F)cc23)C1 | 25
11 | C[C@@H]1COCCN1[C@H]1CCc2ccccc2[C@@H]1Nc1ncnc2[nH]c(C3CC3)cc12 (single isomer, unassigned) | 2.8
12 | c1ccc2c(c1)OC[C@H](N1C[C@H]3COC[C@H]3C1)[C@H]2Nc1ncnc2[nH]c(C3CC3)cc12 (single isomer, unassigned) | 25
13 | c1ccc2c(c1)CC[C@@H](C1CCOCC1)[C@H]2Nc1ncnc2[nH]c(C3CC3)cc12 | 25
14 | C[C@@H]1CN([C@@H]2COc3cc(F)ccc3[C@H]2Nc2ncnc3[nH]c(C(F)(F)F)cc23)CCO1 | 25
15 | C[C@@H]1CN([C@@H]2CCc3ccccc3[C@H]2Nc2ncnc3[nH]c(C4CC4)cc23)C[C@H](C)O1 (single isomer, unassigned) | 25
16 | CN1CCN([C@@H]2CCc3ccccc3[C@H]2Nc2ncnc3[nH]c(C(F)(F)F)cc23)CC1 (single isomer, unassigned) | 25
17 | FC(F)(F)c1cc2c(N[C@H]3c4ccccc4OC[C@@H]3N3CCOCC3)ncnc2[nH]1 (single isomer, unassigned) | 25
18 | C[C@H]1CN([C@H]2COc3cc(F)ccc3[C@@H]2Nc2ncnc3[nH]c(C(F)(F)F)cc23)CCO1 | 25
19 | C[C@@H]1CN([C@@H]2COc3cc(F)ccc3[C@H]2Nc2ncnc3[nH]c(C4CC4)cc23)CCO1 | 25
20 | C[C@H]1CN([C@H]2COc3ccccc3[C@@H]2Nc2ncnc3[nH]c(C(F)(F)F)cc23)CCO1 | 25
21 | c1ccc2c(c1)CC[C@H](C1CCOCC1)[C@@H]2Nc1ncnc2[nH]c(C3CC3)cc12 | 25
22 | C[C@@H]1CN([C@H]2COc3cc(F)ccc3[C@@H]2Nc2ncnc3[nH]c(C(F)(F)F)cc23)CCO1 | 25
23 | C[C@H]1CN([C@@H]2COc3ccccc3[C@H]2Nc2ncnc3[nH]c(C4CC4)cc23)CCO1 | 25
24 | OC[C@@H]1CN([C@H]2COc3ccccc3[C@@H]2Nc2ncnc3[nH]c(C(F)(F)F)cc23)CCO1 (single isomer, unassigned) | 25

Row | Structure (SMILES) | MNTC [µM]
25 | C[C@H]1COCCN1[C@@H]1CCc2ccccc2[C@H]1Nc1ncnc2[nH]c(C(F)(F)F)cc12 (single isomer, unassigned) | 25
26 | FC(F)(F)c1cc2c(N[C@H]3c4ccccc4CC[C@H]3C3CCOCC3)ncnc2[nH]1 | 25
27 | Fc1ccc2c(c1)CC[C@@H](N1C[C@@H]3COC[C@H]3C1)[C@@H]2Nc1ncnc2[nH]c(C(F)(F)F)cc12 | 25
28 | OC(C1CCOCC1)C1COc2ccccc2C1Nc1ncnc2[nH]c(C(F)(F)F)cc12 (single isomer, unassigned) | 25
29 | CO[C@@H]1CCN([C@H]2COc3ccccc3[C@@H]2Nc2ncnc3[nH]c(C4CC4)cc23)C1 | 25
30 | c1ccc2c(c1)CC[C@@H](N1C[C@H]3COC[C@H]3C1)[C@@H]2Nc1ncnc2[nH]c(C3CC3)cc12 (single isomer, unassigned) | 25
31 | CO[C@H]1CCN([C@@H]2COc3ccccc3[C@H]2Nc2ncnc3[nH]c(C4CC4)cc23)C1 | 25
32 | FC(F)(F)c1cc2c(N[C@H]3c4ccccc4OC[C@H]3C3CCOCC3)ncnc2[nH]1 | 8.3
33 | CS(=N)(=O)C1CN(C2COc3ccccc3C2Nc2ncnc3[nH]c(C(F)(F)F)cc23)C1 (stereo not given) | 25
34 | Fc1cccc2c1CC[C@@H](N1C[C@H]3COC[C@H]3C1)[C@@H]2Nc1ncnc2[nH]c(C3CC3)cc12 (single isomer, unassigned) | 25
35 | C[C@@H]1CN([C@H]2CCc3ccccc3[C@@H]2Nc2ncnc3[nH]c(C(F)(F)F)cc23)C[C@H](C)O1 (single isomer, unassigned) | 25
36 | C[S@](=N)(=O)C1CN([C@H]2COc3ccccc3[C@@H]2Nc2ncnc3[nH]c(C(F)(F)F)cc23)C1 (single isomer, unassigned) | 25
37 | C[C@@H]1COCCN1[C@@H]1CCc2ccccc2[C@H]1Nc1ncnc2[nH]c(C(F)(F)F)cc12 (single isomer, unassigned) | 25
38 | Fc1ccc2c(c1)OC[C@H](N1C[C@H]3COC[C@H]3C1)[C@H]2Nc1ncnc2[nH]c(C3CC3)cc12 (single isomer, unassigned) | 25
39 | OC(C1CCOCC1)[C@H]1COc2ccccc2[C@@H]1Nc1ncnc2[nH]c(C(F)(F)F)cc12 (stereo not given in full) | 25
40 | FC(F)(F)c1cc2c(N[C@@H]3c4ccccc4CC[C@H]3C3CCOCC3)ncnc2[nH]1 (single isomer, unassigned) | 25
41 | C[C@H]1CN([C@@H]2CCc3ccccc3[C@H]2Nc2ncnc3[nH]c(C4CC4)cc23)CCO1 (single isomer, unassigned) | 25
42 | FC(F)(F)c1cc2c(N[C@H]3c4ccccc4CC[C@@H]3C3CCOCC3)ncnc2[nH]1 (single isomer, unassigned) | 25
43 | C[C@@H]1CN([C@@H]2CCc3ccccc3[C@H]2Nc2ncnc3[nH]c(C(F)(F)F)cc23)CCO1 (single isomer, unassigned) | 25
44 | c1ccc2c(c1)CC[C@@H](C1CCOCC1)[C@@H]2Nc1ncnc2[nH]c(C3CC3)cc12 | 25
45 | C[C@@H]1CN([C@H]2COc3ccccc3[C@@H]2Nc2ncnc3[nH]c(C4CC4)cc23)CCO1 | 25
46 | Fc1cccc2c1CC[C@H](N1C[C@H]3COC[C@H]3C1)[C@H]2Nc1ncnc2[nH]c(C3CC3)cc12 (single isomer, unassigned) | 25
47 | FC(F)(F)c1cc2c(N[C@H]3c4ccccc4OC[C@@H]3C3CCCOC3)ncnc2[nH]1 (single isomer, unassigned) | 25
48 | C[C@@H]1CN([C@@H]2CCc3ccccc3[C@H]2Nc2ncnc3[nH]c(C(F)(F)F)cc23)C[C@H](C)O1 (single isomer, unassigned) | 25

Row | Structure (SMILES) | MNTC [µM]
49 | COC[C@H]1CCCN1[C@H]1COc2ccccc2[C@@H]1Nc1ncnc2[nH]c(C(F)(F)F)cc12 (single isomer, unassigned) | 25
50 | Fc1ccc2c(c1)OC[C@H](N1C[C@@H]3COC[C@H]3C1)[C@H]2Nc1ncnc2[nH]c(C(F)(F)F)cc12 (single isomer, unassigned) | 25
51 | Fc1cccc2c1CC[C@H](N1C[C@H]3COC[C@H]3C1)[C@H]2Nc1ncnc2[nH]c(C(F)(F)F)cc12 (single isomer, unassigned) | 25
52 | CN1CCN([C@H]2CCc3ccccc3[C@@H]2Nc2ncnc3[nH]c(C(F)(F)F)cc23)CC1 (single isomer, unassigned) | 25
53 | c1ccc2c(c1)OCC(N1CC3CCOC3C1)C2Nc1ncnc2[nH]c(C3CC3)cc12 (single isomer, unassigned) | 25
54 | c1ccc2c(c1)OC[C@@H](N1C[C@H]3COC[C@H]3C1)[C@@H]2Nc1ncnc2[nH]c(C3CC3)cc12 (single isomer, unassigned) | 25
55 | Fc1cccc2c1CC[C@@H](N1C[C@H]3COC[C@H]3C1)[C@@H]2Nc1ncnc2[nH]c(C(F)(F)F)cc12 (single isomer, unassigned) | 25
56 | OC[C@H]1CN([C@H]2COc3ccccc3[C@@H]2Nc2ncnc3[nH]c(C(F)(F)F)cc23)CCO1 (single isomer, unassigned) | 25
57 | C[C@@H]1CN([C@H]2CCc3ccccc3[C@@H]2Nc2ncnc3[nH]c(C4CC4)cc23)C[C@H](C)O1 (single isomer, unassigned) | 25
58 | c1ccc2c(c1)OC[C@H](C1CCOCC1)[C@@H]2Nc1ncnc2[nH]c(C3CC3)cc12 | 25
59 | [2H]C([2H])([2H])OC1CN([C@@H]2COc3ccccc3[C@H]2Nc2ncnc3[nH]c(C(F)(F)F)cc23)C1 | 25
60 | CO[C@@H]1CCN([C@@H]2COc3ccccc3[C@H]2Nc2ncnc3[nH]c(C(F)(F)F)cc23)C1 | 25
61 | c1ccc2c(c1)OC[C@@H](C1CCOCC1)[C@H]2Nc1ncnc2[nH]c(C3CC3)cc12 | 25
62 | COC[C@@H]1CCCN1[C@H]1COc2ccccc2[C@@H]1Nc1ncnc2[nH]c(C(F)(F)F)cc12 (single isomer, unassigned) | 25
63 | FC1COCCC1[C@H]1COc2ccccc2[C@@H]1Nc1ncnc2[nH]c(C(F)(F)F)cc12 (single isomer, unassigned) | 25
64 | Fc1ccc2c(c1)OC[C@H](N1CCOCC1)[C@H]2Nc1ncnc2[nH]c(C3CC3)cc12 | 25
65 | C[C@H]1CN([C@@H]2CCc3ccccc3[C@H]2Nc2ncnc3[nH]c(C(F)(F)F)cc23)CCO1 (single isomer, unassigned) | 25
66 | Fc1ccc2c(c1)CC[C@H](N1C[C@H]3COC[C@H]3C1)[C@H]2Nc1ncnc2[nH]c(C(F)(F)F)cc12 (single isomer, unassigned) | 25
67 | Fc1ccc2c(c1)OC[C@@H](N1CCOCC1)[C@@H]2Nc1ncnc2[nH]c(C3CC3)cc12 (single isomer, unassigned) | 25
68 | C[C@@H]1CN([C@H]2COc3ccccc3[C@@H]2Nc2ncnc3[nH]c(C(F)(F)F)cc23)CCO1 | 25
69 | C[C@H]1CN([C@H]2COc3cc(F)ccc3[C@@H]2Nc2ncnc3[nH]c(C4CC4)cc23)CCO1 | 25
70 | c1ccc2c(c1)OC[C@@H](N1CCOCC1)[C@H]2Nc1ncnc2[nH]c(C3CC3)cc12 | 25
